Structures are written as SMILES. Read-outs that look alike come from different tables or passages of the source.

A word on the EC50: it is the concentration that produces a half-maximal response. Read a high EC50 as a less potent agent.

In assay [1] the test system is N-methyl-D-aspartate receptor (NMDAR), NR1 subunit coagonist site.
Assay [2] has the same test system. The assay is described as follows: whole-cell voltage clamp. In kind it is cell-based, Ambystoma tigrinum.
Assay [3] shares this test system. The assay is described as follows: whole-cell voltage clamp of retinal ganglion cells. On the set-up: species or system Ambystoma tigrinum.

The molecule `NCC(=O)O` [glycine] came in with a concentration giving a half-maximal response (EC50) in assay [1] of 118 ± 48.1 µM.
For the molecule `O=C(O)c1cc(O)c2ccc(Cl)cc2n1` [7CKA, 7-chlorokynurenic acid], the “% of control at 25 μM” value in assay [2] came out at 5.3 ± 1.0.
Turning to `N[C@H](CO)C(=O)O` [D-serine], in assay [3], the midpoint of the response, the EC50, lay at 3.48 ± 1.05 µM.

The record behind these values is PMC2913692 (The European journal of neuroscience, 2010).
